# Reference: US10265307B2, “Thiazolecarboxamides and pyridinecarboxamide compounds useful as Pim kinase inhibitors” (Incyte Corporation, priority 2013, dated 2019)
# Legend:
# Format in all cases: biochemical
# Pim-3 = Pim-3 (Homo sapiens (Human), UniProt Q86V86); assay: Pim-3 kinase assay; settings: 1 mM ATP; read-out: Pim3 IC50
# Protocol: Pim-1 and Pim-3 kinase assays-20 μL reactions were run in white 384 well polystyrene plates dotted with 0.8 μL compound/DMSO in the assay buffer (50 mM Tris, pH 7.5, 0.01% Tween-20, 5 mM MgCl2, 0.01% BSA, 5 mM DTT), containing 0.05 μM Biotin-labeled BAD peptide substrate (AnaSpec 62269), 1 mM ATP, and […] (Pim-1, Invitrogen PV3503) or […] (Pim-3, Millipore 14-738) enzyme for 1 h at 25° C. Reactions were stopped by addition of 10 μL STOP Buffer (150 mM Tris, pH=7.5, 150 mM NaCl, 75 mM EDTA, 0.01% Tween-20, 0.3% BSA) supplemented with Phospho-Bad (Ser112) Antibody (Cell Signaling 9291) diluted 666-fold, and Streptavidin donor beads (PerkinElmer 6760002) along with Protein-A acceptor beads (PerkinElmer 6760137) at 15 μg/mL each. Supplementation of the STOP buffer with beads and stopping the reactions were done under reduced light. Prior to the stopping reactions STOP buffer with beads was pre-incubated for 1 h in the dark at room temperature. After stopping the reactions, plates were incubated for 1 h in the dark at room temperature before reading on a PHERAstar FS plate reader (BMG Labtech) under reduced light.
# Pim-1 = Pim-1 (Homo sapiens (Human), UniProt P11309); assay: Pim-1 kinase assay; settings: 1 mM ATP; read-out: Pim1 IC50
# Pim-1, sequence (P11309 whole entry): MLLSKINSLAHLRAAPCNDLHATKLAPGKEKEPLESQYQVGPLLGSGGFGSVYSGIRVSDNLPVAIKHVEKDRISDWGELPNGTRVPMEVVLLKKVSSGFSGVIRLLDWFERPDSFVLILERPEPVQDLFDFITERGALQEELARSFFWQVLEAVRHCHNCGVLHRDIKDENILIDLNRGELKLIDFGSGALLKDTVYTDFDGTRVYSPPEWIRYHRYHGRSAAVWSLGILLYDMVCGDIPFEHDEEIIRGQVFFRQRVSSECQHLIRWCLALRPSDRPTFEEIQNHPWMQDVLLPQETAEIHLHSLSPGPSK
# Protocol: Supplementation of the STOP buffer with beads and stopping the reactions were done under reduced light. Prior to the stopping reactions STOP buffer with beads was pre-incubated for 1 h in the dark at room temperature. After stopping the reactions, plates were incubated for 1 h in the dark at room temperature before reading on a PHERAstar FS plate reader (BMG Labtech) under reduced light.
# Pim-2 = Pim-2 (Homo sapiens (Human), UniProt Q9P1W9); assay: Pim-2 kinase assay; settings: 1 mM ATP; read-out: Pim2 IC50
# Pim-2, sequence (Q9P1W9 whole entry): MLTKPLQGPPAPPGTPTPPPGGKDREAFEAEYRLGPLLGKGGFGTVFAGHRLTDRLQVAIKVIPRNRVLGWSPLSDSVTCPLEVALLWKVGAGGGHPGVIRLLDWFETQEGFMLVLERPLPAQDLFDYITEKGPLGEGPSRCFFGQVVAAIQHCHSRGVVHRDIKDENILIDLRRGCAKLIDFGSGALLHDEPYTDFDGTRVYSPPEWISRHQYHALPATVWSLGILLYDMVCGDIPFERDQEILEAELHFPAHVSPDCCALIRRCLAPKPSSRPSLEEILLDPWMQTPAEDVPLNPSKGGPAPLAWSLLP
# Protocol: Pim-2 kinase assay-20 μL reactions were run in white 384 well polystyrene plates dotted with 0.8 μL compound/DMSO in the assay buffer (50 mM Tris, pH 7.5, 0.01% Tween-20, 5 mM MgCl2, 0.01% BSA, 5 mM DTT), containing 0.05 μM Fluorescein-labeled CREBtide peptide substrate (Invitrogen PV3508), 1 mM ATP, and 1 nM enzyme (Invitrogen PV3649) for 2 h at 25° C. Reactions were stopped by addition of 10 μL TR-FRET Dilution Buffer (Invitrogen PV3574) with 30 mM EDTA and 1.5 nM LanthaScreen Tb-CREB pSer133 antibody (Invitrogen PV3566). After 30 min. incubation at room temperature, plates were read on a PHERAstar FS plate reader (BMG Labtech).
# Although the above in vitro assays are conducted at 1 mM ATP compounds can also be evaluated for potency and in vitro activity against PIM targets utilizing Km conditions, where the concentration of ATP is set to the Km value and the assay is more sensitive to PIM inhibition activity.
SMILES,IC50 (Pim-3) [µM],IC50 (Pim-1) [µM],IC50 (Pim-2) [µM]
"C[C@@H]1C[C@H](N)CN(c2c(NC(=O)c3ccc(F)c(-c4c(F)cc(OC5CCCOC5)cc4F)n3)cnc3c2CCC3O)C1 (single isomer, unassigned) [70 (Diastereoisomer 2)]",≤ 0.1,≤ 0.1,≤ 0.1
"CC(C)(O)c1cc(F)c(-c2nc(C(=O)Nc3cnc4c(c3N3C[C@@H](N)C[C@@H](C(F)(F)F)C3)CCC4O)ccc2F)c(F)c1 (single isomer, unassigned) [72 (Diastereoisomer 1)]",≤ 0.1,≤ 0.1,≤ 0.1
"CC(C)(O)c1cc(F)c(-c2nc(C(=O)Nc3cnc4c(c3N3C[C@@H](N)C[C@@H](C(F)(F)F)C3)CCC4O)ccc2F)c(F)c1 (single isomer, unassigned) [72 (Diastereoisomer 2)]",≤ 0.1,≤ 0.1,≤ 0.1
"Nc1sc(-c2c(F)cccc2F)nc1C(=O)Nc1cnc2c(c1N1CC[C@H](O)[C@@H](N)C1)CCC2 (single isomer, unassigned) [Example 24, 5-Amino-N-{4-[3,4-trans-3-amino-4-hydroxypiperidin-1-yl]-6,7-dihydro-5H-cyclopenta[b]pyridin-3-yl}-2-(2,6-difluorophenyl)-1,3-thiazole-4-carboxamide]",≤ 0.1,≤ 0.1,> 2
"Nc1sc(-c2c(F)cccc2F)nc1C(=O)Nc1cnc2c(c1N1CC[C@@H](O)[C@H](N)C1)CCC2 (single isomer, unassigned) [Example 25, 5-Amino-N-{4-[3,4-trans-3-amino-4-hydroxypiperidin-1-yl]-6,7-dihydro-5H-cyclopenta[b]pyridin-3-yl}-2-(2,6-difluorophenyl)-1,3-thiazole-4-carboxamide]",≤ 0.1,≤ 0.1,≤ 0.1
"Nc1sc(-c2c(F)cccc2F)nc1C(=O)Nc1cnc2c(c1N1CC[C@@H](O)[C@@H](N)C1)CCC2 (single isomer, unassigned) [Example 26]",≤ 0.1,≤ 0.1,> 2
"Nc1sc(-c2c(F)cccc2F)nc1C(=O)Nc1cnc2c(c1N1CC[C@H](O)[C@H](N)C1)CCC2 (single isomer, unassigned) [Example 27, 5-Amino-N-{4-[3.4-cis-3-amino-4-hydroxypiperidin-1-yl]-6,7-dihydro-5H-cyclopenta[b]pyridin-3-yl}-2-(2,6-difluorophenyl)-1,3-thiazole-4-carboxamide]",≤ 0.1,≤ 0.1,≤ 0.1
"Nc1sc(-c2c(F)cccc2F)nc1C(=O)Nc1cnc2ccsc2c1N1CC[C@@H](O)[C@H](N)C1 (single isomer, unassigned) [Example 29, 5-Amino-N-{7-[3,4-trans-3-amino-4-hydroxypiperidin-1-yl]thieno[3,2-b]pyridin-6-yl}-2-(2,6-difluorophenyl)-1,3-thiazole-4-carboxamide]",≤ 0.1,≤ 0.1,0.1 to 1
"Nc1sc(-c2c(F)cccc2F)nc1C(=O)Nc1cnc2ccsc2c1N1CC[C@H](O)[C@H](N)C1 (single isomer, unassigned) [Example 30, 5-Amino-N-{7-[3.4-cis-3-amino-4-hydroxypiperidin-1-yl]thieno[3,2-b]pyridin-6-yl}-2-(2,6-difluorophenyl)-1,3-thiazole-4-carboxamide]",≤ 0.1,≤ 0.1,0.1 to 1
"Nc1sc(-c2c(F)cccc2F)nc1C(=O)Nc1cnc2ccccc2c1N1CCC[C@H](N)C1 [Example 1, 5-Amino-N-{4-[(3S)-3-aminopiperidin-1-yl]quinolin-3-yl}-2-(2,6-difluorophenyl)-1,3-thiazole-4-carboxamide]",≤ 0.1,≤ 0.1,0.277
"N[C@H]1CCCN(c2c(NC(=O)c3csc(-c4c(F)cccc4F)n3)cnc3ccccc23)C1 [Example 2, N-{4-[(3S)-3-Aminopiperidin-1-yl]quinolin-3-yl}-2-(2,6-difluorophenyl)-1,3-thiazole-4-carboxamide]",> 0.04,> 0.04,> 2
"Nc1sc(-c2c(F)cccc2F)nc1C(=O)Nc1cnc2sccc2c1N1CCC[C@H](N)C1 [Example 3, 5-Amino-N-{4-[(3S)-3-aminopiperidin-1-yl]thieno[2,3-b]pyridin-5-yl}-2-(2,6-difluorophenyl)-1,3-thiazole-4-carboxamide]",≤ 0.1,≤ 0.1,≤ 0.1
"N[C@H]1CCCN(c2c(NC(=O)c3csc(-c4c(F)cccc4F)n3)cnc3sccc23)C1 [Example 4, N-{4-[(3S)-3-Aminopiperidin-1-yl]thieno[2,3-b]pyridin-5-yl}-2-(2,6-difluorophenyl)-1,3-thiazole-4-carboxamide]",≤ 0.1,≤ 0.1,> 2
"Nc1sc(-c2c(F)cccc2F)nc1C(=O)Nc1cnc2ccsc2c1N1CCC[C@H](N)C1 [Example 5, 5-Amino-N-{7-[(3S)-3-aminopiperidin-1-yl]thieno[3,2-b]pyridin-6-yl}-2-(2,6-difluorophenyl)-1,3-thiazole-4-carboxamide]",≤ 0.1,≤ 0.1,≤ 0.1
"N[C@H]1CCCN(c2c(NC(=O)c3csc(-c4c(F)cccc4F)n3)cnc3ccsc23)C1 [Example 6, N-{7-[(3S)-3-Aminopiperidin-1-yl]thieno[3,2-b]pyridin-6-yl}-2-(2,6-difluorophenyl)-1,3-thiazole-4-carboxamide]",≤ 0.1,≤ 0.1,> 2
"Nc1sc(-c2c(F)cccc2F)nc1C(=O)Nc1cnc2[nH]ccc2c1N1CCC[C@H](N)C1 [Example 7, 5-Amino-N-{4-[(3S)-3-aminopiperidin-1-yl]-1H-pyrrolo[2,3-b]pyridin-5-yl}-2-(2,6-difluorophenyl)-1,3-thiazole-4-carboxamide]",≤ 0.1,≤ 0.1,≤ 0.1
"N[C@H]1CCCN(c2c(NC(=O)c3csc(-c4c(F)cccc4F)n3)cnc3[nH]ccc23)C1 [Example 8, N-{4-[(3S)-3-Aminopiperidin-1-yl]-1H-pyrrolo[2,3-b]pyridin-5-yl}-2-(2,6-difluorophenyl)-1,3-thiazole-4-carboxamide]",≤ 0.1,≤ 0.1,> 2
"Nc1sc(-c2c(F)cccc2F)nc1C(=O)Nc1cnc2c(c1N1CCC[C@H](N)C1)CCO2 [Example 9, 5-Amino-N-{4-[(3S)-3-aminopiperidin-1-yl]-2,3-dihydrofuro[2,3-b]pyridin-5-yl}-2-(2,6-difluorophenyl)-1,3-thiazole-4-carboxamide]",≤ 0.1,≤ 0.1,≤ 0.1
"N[C@H]1CCCN(c2c(NC(=O)c3csc(-c4c(F)cccc4F)n3)cnc3c2CCO3)C1 [Example 10, N-{4-[(3S)-3-Aminopiperidin-1-yl]-2,3-dihydrofuro[2,3-b]pyridin-5-yl}-2-(2,6-difluorophenyl)-1,3-thiazole-4-carboxamide]",≤ 0.1,≤ 0.1,0.1 to 1
"N[C@H]1CCCN(c2c(NC(=O)c3ccc(F)c(-c4c(F)cccc4F)n3)cnc3c2CCO3)C1 [Example 11, N-{4-[(3S)-3-Aminopiperidin-1-yl]-2,3-dihydrofuro[2,3-b]pyridin-5-yl}-6-(2,6-difluorophenyl)-5-fluoropyridine-2-carboxamide]",≤ 0.1,≤ 0.1,0.1 to 1
"Nc1cc(F)c(-c2c(F)cccc2F)nc1C(=O)Nc1cnc2c(c1N1CCC[C@H](N)C1)CCO2 [Example 12, 3-Amino-N-{4-[(3S)-3-aminopiperidin-1-yl]-2,3-dihydrofuro[2,3-b]pyridin-5-yl}-6-(2,6-difluorophenyl)-5-fluoropyridine-2-carboxamide]",≤ 0.1,≤ 0.1,≤ 0.1
"N[C@H]1CCCN(c2c(NC(=O)c3csc(-c4c(F)cccc4F)n3)cnc3c2CCC3)C1 [Example 13, N-{4-[(3S)-3-Aminopiperidin-1-yl]-6,7-dihydro-5H-cyclopenta[b]pyridin-3-yl}-2-(2,6-difluorophenyl)-1,3-thiazole-4-carboxamide]",≤ 0.1,≤ 0.1,> 2
